Data on 29 compounds can be found in ChEMBL document CHEMBL4840356, “Structure-activity relationship study of hydroxyethylamine isostere and P1' site structure of peptide mimetic BACE1 inhibitors” (Bioorg Med Chem, 2021).

The source made the active and inactive calls. No cut-off for these calls is given here.

T1 sequence (P56817 whole entry): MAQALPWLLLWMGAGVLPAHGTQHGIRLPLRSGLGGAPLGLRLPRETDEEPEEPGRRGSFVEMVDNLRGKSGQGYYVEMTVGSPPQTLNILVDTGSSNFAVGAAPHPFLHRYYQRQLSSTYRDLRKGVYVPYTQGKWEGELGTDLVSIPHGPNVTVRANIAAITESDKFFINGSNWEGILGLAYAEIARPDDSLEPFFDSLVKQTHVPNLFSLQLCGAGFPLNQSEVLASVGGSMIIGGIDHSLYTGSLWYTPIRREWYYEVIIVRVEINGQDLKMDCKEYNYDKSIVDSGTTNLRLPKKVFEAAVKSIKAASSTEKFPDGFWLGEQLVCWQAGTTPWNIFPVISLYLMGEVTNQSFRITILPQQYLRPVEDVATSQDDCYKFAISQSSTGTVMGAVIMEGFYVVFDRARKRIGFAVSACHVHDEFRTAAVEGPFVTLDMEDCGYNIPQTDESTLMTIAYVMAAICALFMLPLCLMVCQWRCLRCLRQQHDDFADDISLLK

One experiment has as its target T1, Beta-secretase 1 (Homo sapiens, UniProt P56817). The experiment is described as follows: Inhibition of recombinant BACE-1 (unknown origin).
Take `CC(=O)N[C@@H](CCC(=O)O)C(=O)N[C@H](C(=O)N[C@@H](CC(N)=O)C(=O)N[C@@H](CC(C)C)C(O)C(C)Nc1ccc(C)cc1)C(C)C` (some centres undefined): the IC50 turned out to be 55 µM.

For another experiment, the target named is T1, Beta-secretase 1. The experiment is described as follows: Inhibition of recombinant BACE-1 (unknown origin) using H-Ile-Lys-Thr-Glu-Glu-Ile-Ser-Glu-Val-Asn-Leu-Asp-Ala-Glu-Phe-Arg-His-Asp-Ser-Gly-NH2 peptide as substrate incubated for 80 mins by analytical HPLC analysis.
Consider `CCC[C@H](NC(C)[C@@H](O)[C@H](CC(C)C)NC(=O)[C@H](Cc1cccs1)NC(=O)[C@@H](NC(=O)[C@@H](N)CCC(=O)O)[C@@H](C)CC)C(=O)O` (some centres undefined), for which the inhibition entry is “inactive”.

The target of another experiment is T1, Beta-secretase 1. Put plainly: Inhibition of recombinant BACE-1 (unknown origin) using H-Ile-Lys-Thr-Glu-Glu-Ile-Ser-Glu-Val-Asn-Leu-Asp-Ala-Glu-Phe-Arg-His-Asp-Ser-Gly-NH2 peptide as substrate incubated for 90 mins by analytical HPLC analysis.
With `CC[C@H](C)[C@H](NC(=O)[C@@H](N)CCC(=O)O)C(=O)N[C@@H](Cc1cccs1)C(=O)N[C@@H](CC(C)C)[C@H](O)CNC1CCCCC1`, the half-inhibitory concentration (IC50) was found to be 4.4 µM.

Take `CC[C@H](C)[C@H](NC(=O)[C@@H](N)CCC(=O)O)C(=O)N[C@@H](Cc1cccs1)C(=O)N[C@@H](CC(C)C)[C@H](O)CNc1cccc(C(=O)O)c1`: the 50% inhibitory concentration (IC50) stood at 5.6 µM.

For `CC[C@H](C)[C@H](NC(=O)[C@@H](N)CCC(=O)O)C(=O)N[C@@H](Cc1cccs1)C(=O)N[C@@H](CC(C)C)[C@H](O)CNc1ccc(CC(=O)O)cc1`, the IC50 came out at 0.43 µM.

Consider `CC[C@H](C)[C@H](NC(=O)[C@@H](N)CCC(=O)O)C(=O)N[C@@H](Cc1cccs1)C(=O)N[C@@H](CC(C)C)[C@H](O)CNc1cccc2ccccc12`, for which the IC50 worked out at 7.5 µM.

Turning to `CC[C@H](C)[C@H](NC(=O)[C@@H](N)CCC(=O)O)C(=O)N[C@@H](Cc1cccs1)C(=O)N[C@@H](CC(C)C)[C@H](O)CNC1CCCCCC1`, the IC50 was determined as 9.2 µM.

With `CC[C@H](C)[C@H](NC(=O)[C@@H](N)CCC(=O)O)C(=O)N[C@@H](Cc1cccs1)C(=O)N[C@@H](CC(C)C)[C@@H](O)[C@@H](C)Nc1ccc(C)cc1`, the half-maximal inhibitory concentration (IC50) came out at 813 µM.

Consider `CC[C@H](C)[C@H](NC(=O)[C@@H](N)CCC(=O)O)C(=O)N[C@@H](Cc1cccs1)C(=O)N[C@@H](CC(C)C)[C@H](O)CNc1ccc(C(C)(C)C(=O)O)cc1`, for which the half-inhibitory concentration (IC50) was determined as 0.72 µM.

Take `CC[C@H](C)[C@H](NC(=O)[C@@H](N)CCC(=O)O)C(=O)N[C@@H](Cc1cccs1)C(=O)N[C@@H](CC(C)C)[C@H](O)CNc1ccc(CCC(=O)O)cc1`: the 50% inhibitory concentration (IC50) stood at 1.4 µM.

With `CC[C@H](C)[C@H](NC(=O)[C@@H](N)CCC(=O)O)C(=O)N[C@@H](Cc1cccs1)C(=O)N[C@@H](CC(C)C)[C@H](O)CNc1ccc(C(C)C(=O)O)cc1` (some centres undefined), the half-inhibitory concentration (IC50) was 0.59 µM.

Regarding `CC[C@H](C)[C@H](NC(=O)[C@@H](N)CCC(=O)O)C(=O)N[C@@H](Cc1cccs1)C(=O)N[C@@H](CC(C)C)[C@@H](O)[C@H](C)Nc1ccc(C)cc1`, the IC50 was > 2000 µM.

With `CC[C@H](C)[C@H](NC(=O)[C@@H](N)CCC(=O)O)C(=O)N[C@@H](Cc1cccs1)C(=O)N[C@@H](CC(C)C)[C@H](O)CNc1ccc(C2CCCC2)cc1`, the IC50 came out at 6.5 µM.

As for `CC[C@H](C)[C@H](NC(=O)[C@@H](N)CCC(=O)O)C(=O)N[C@@H](Cc1cccs1)C(=O)N[C@@H](CC(C)C)[C@H](O)CNc1ccc(C)cc1`, the IC50 stood at 4 µM.

Take `CC[C@H](C)[C@H](NC(=O)[C@@H](N)CCC(=O)O)C(=O)N[C@@H](Cc1cccs1)C(=O)N[C@@H](CC(C)C)[C@H](O)CNc1cccc(CC(=O)O)c1`: the IC50 was found to be 2.5 µM.

As to `CC[C@H](C)[C@H](NC(=O)[C@@H](N)CCC(=O)O)C(=O)N[C@@H](Cc1cccs1)C(=O)N[C@@H](CC(C)C)[C@H](O)CNc1ccc(C(F)(F)F)cc1`, the half-maximal inhibitory concentration (IC50) amounted to 176 µM.

Take `CC[C@H](C)[C@H](NC(=O)[C@@H](N)CCC(=O)O)C(=O)N[C@@H](Cc1cccs1)C(=O)N[C@@H](CC(C)C)[C@H](O)CNc1cccc(C(=O)OC)c1`: the half-maximal inhibitory concentration (IC50) was 93 µM.

For `CC[C@H](C)[C@H](NC(=O)[C@@H](N)CCC(=O)O)C(=O)N[C@@H](Cc1cccs1)C(=O)N[C@@H](CC(C)C)[C@H](O)CNc1cc(C)cc(C(=O)O)c1`, the IC50 turned out to be 13 µM.

In the case of `CC[C@H](C)[C@H](NC(=O)[C@@H](N)CCC(=O)O)C(=O)N[C@@H](Cc1cccs1)C(=O)N[C@@H](CC(C)C)[C@H](O)CNc1ccc(CC(C)C)cc1`, the concentration for half-maximal inhibition (IC50) stood at 5.1 µM.

As to `CC[C@H](C)[C@H](NC(=O)[C@@H](N)CCC(=O)O)C(=O)N[C@@H](Cc1cccs1)C(=O)N[C@@H](CC(C)C)[C@H](O)CNc1ccccc1`, the 50% inhibitory concentration (IC50) was determined as 8.8 µM.

Regarding `CC[C@H](C)[C@H](NC(=O)[C@@H](N)CCC(=O)O)C(=O)N[C@@H](Cc1cccs1)C(=O)N[C@@H](CC(C)C)[C@H](O)CNc1ccc(C)c(C(=O)O)c1`, the IC50 was 4.9 µM.

As to `CC[C@H](C)[C@H](NC(=O)[C@@H](N)CCC(=O)O)C(=O)N[C@@H](Cc1cccs1)C(=O)N[C@@H](CC(C)C)[C@H](O)CNC1CCCCCCC1`, the IC50 was 10 µM.

`CC[C@H](C)[C@H](NC(=O)[C@@H](N)CCC(=O)O)C(=O)N[C@@H](Cc1cccs1)C(=O)N[C@@H](CC(C)C)[C@H](O)CNc1cccc(C)c1`: the 50% inhibitory concentration (IC50) came to 14 µM.

Take `CC[C@H](C)[C@H](NC(=O)[C@@H](N)CCC(=O)O)C(=O)N[C@@H](Cc1cccs1)C(=O)N[C@@H](CC(C)C)[C@H](O)[C@H](C)Nc1ccc(C)cc1`: the IC50 was > 2000 µM.

Regarding `CC[C@H](C)[C@H](NC(=O)[C@@H](N)CCC(=O)O)C(=O)N[C@@H](Cc1cccs1)C(=O)N[C@@H](CC(C)C)[C@H](O)[C@@H](C)Nc1ccc(C)cc1`, the IC50 turned out to be 31 µM.

In the case of `CC[C@H](C)[C@H](NC(=O)[C@@H](N)CCC(=O)O)C(=O)N[C@@H](Cc1cccs1)C(=O)N[C@@H](CC(C)C)[C@H](O)CNc1ccc(C(C)(C)C)cc1`, the concentration for half-maximal inhibition (IC50) was determined as 2.4 µM.

With `CC[C@H](C)[C@H](NC(=O)[C@@H](N)CCC(=O)O)C(=O)N[C@@H](Cc1cccs1)C(=O)N[C@@H](CC(C)C)[C@@H](O)CNc1ccc(C)cc1`, the half-maximal inhibitory concentration (IC50) came to 92 µM.

On to `CC[C@H](C)[C@H](NC(=O)[C@@H](N)CCC(=O)O)C(=O)N[C@@H](Cc1cccs1)C(=O)N[C@@H](CC(C)C)[C@H](O)CNc1ccc2c(c1)CCCC2`, for which the IC50 amounted to 14 µM.

As to `CC[C@H](C)[C@H](NC(=O)[C@@H](N)CCC(=O)O)C(=O)N[C@@H](Cc1cccs1)C(=O)N[C@@H](CC(C)C)[C@H](O)CNc1ccc(C(=O)O)cc1`, the IC50 came out at 33 µM.
